Data as given in patent US10669287B2, “Curcumin-boron complex and pharmaceutical containing same” (JAPAN SCIENCE AND TECHNOLOGY AGENCY, priority 2016, dated 2020).
Where two headings read alike, the source gives them in different places.

Biological target: T1, Arctic Aβ1-38 (Homo sapiens, UniProt P05067, E693G)
T1 construct: The peak intensity decreased by 36%/53%/74% for Arctic Aβ1-38; from tissue; host or cells: cerebral cortex and hippocampus of App knock-in mouse
Type: biochemical
Details: mouse brain lysate, light 780 nm
Procedure: The brain excised from an eight-month-old App knock-in (App^NL-C-F/NL-C-F) mouse (Alzheimer's model mouse) was separated into the cerebral cortex, the hippocampus, and the residual brain tissues. The cerebral cortex and the hippocampus were homogenized together in a phosphate buffer saline, and the suspension was stored at −80° C. […] At an arbitrary point of time, an arbitrary aliquot of the reaction mixture was diluted with formic acid to a final concentration of 70%, concentrated, and redissolved in a 6 M aqueous solution of urea.

With `O=C(O)CCCCCN1CCCc2cc(/C=C/C3=[O+][B-](F)(C(F)(F)C(F)(F)F)OC(/C=C/c4cc5c6c(c4)CCCN6CCC5)=C3Br)ccc21` (stereo not drawn) [Compound E] the “decrease of peak intensity (conversion) of Arctic Aβ1-38” value (from here on “decrease of peak intensity”) (30 minutes) was 36%, the “decrease of peak intensity” value (60 minutes) was 53% and the “decrease of peak intensity” value (150 minutes) was 74%.
